Laboratory results: patent publication US9090671B2, “Macrocyclic peptides” (Scynexis, Inc., priority 2008, dated 2015)
pEC50: −log10 of the molar value.

Key:
[1] = system: HCV RNA replicon ET (luc ubi neo/ET); assay: HCV RNA replicon luciferase assay in human hepatoma cell line ET; format: cell-based; conditions: Hepatitis C virus, 72 hours, read-out: EC50, effective concentration that reduced viral replication by 50% (HCV RNA replicon derived LUC activity)
Description: Representative compounds of the present invention were tested for activity against HCV using the methods adapted from those described by Kriger et al., 2001, Journal of Virology 75:4614-4624, Pietschmann et al., 2002, Journal of Virology, 76:4008-4021, and using HCV RNA constructs as described in U.S. Pat. No. 6,630,343. Compounds were examined in the human hepatoma cell line ET (lub ubi neo/ET), a HCV RNA replicon containing a stable luciferase (LUC) reporter. The HCV RNA replicon ET contains the 5′ end of HCV (with the HCV Internal Ribosome Entry Site (IRES) and the first few amino acids of the HCV core protein) which drives the production of a firefly luciferase (LUC), ubiquitin, and neomycin phosphotransferase (NeoR) fusion protein. Ubiquitin cleavage releases the LUC and NeoR proteins. The EMCV IRES element controls the translation of the HCV […] NS3-NS5. The NS3 protein cleaves the HCV polyprotein to release the mature NS3, NS4A, NS4B, NS5A and NS5B proteins that are required for HCV replication. At the 3′ end of the replicon is the authentic 3′ NTR of HCV. The activity of the LUC reporter is directly proportional to HCV replication levels and positive-control antiviral compounds produce a reproducible antiviral response using the LUC endpoint.
The compounds were dissolved in DMSO at five half-log concentrations each, ranging from either 0.03 to 3 μM or 1 to 100 μM. Subconfluent cultures of the ET line were plated out into 96 well plates dedicated for the analysis of cell numbers (cytotoxicity) or antiviral activity and the next day the compounds were added to the appropriate wells. […] Compound EC50 and EC90 values were derived from HCV RNA levels assessed as HCV RNA replicon derived LUC activity. Cytotoxicity was expressed as IC50 and IC90, the concentration of compound that inhibited cell viability by 50% and 90%, respectively. Compound IC50 and IC90 values were calculated using a colorimetric assay as an indication of cell numbers and cytotoxicity. The activity of the LUC reporter is directly proportional to HCV RNA levels in the human cell line. The HCV-replicon assay was validated in parallel experiments using interferon-alpha-2b as a positive control. Cyclosporine was also tested by way of comparison.

cyclophilin D = cyclophilin D (Homo sapiens, UniProt P30405); assay: Cyclophilin binding competitive ELISA (cyclophilin D); conditions: human recombinant cyclophilin, read-out: EC50, concentration required to achieve 50% inhibition, against cyclophilin D
Description: (§1) The cyclophilin inhibition binding of compounds disclosed herein is determined using a competitive ELISA adapted from the methods described by Quesniaux et al. (Eur. J. Immunol., 1987, 17:1359-1365). Activated ester of succinyl spacers bound to D-Lys^8-cyclosporine A (D-Lys^8-Cs) are coupled to bovine serum albumin (BSA) through D-lysyl residue in position 8. BSA is dissolved in 0.1 M borate buffer, pH 9.0 (4 mg in 1.4 ml). A hundredfold molar excess of D-Lys^8-Cs dissolved in dimethyl formamide (0.6 ml) is added drop wise to the BSA under vigorous stirring.
(§2) Microtiter Plates are coated with D-Lys^8-Cs-BSA conjugate (2 μg/ml in PBS for 24 hours at 4° C.). Plates are washed with Tween®/PBS and with PBS alone. To block nonspecific binding, 2% BSA/PBS (pH 7.4) is added to the wells and allowed to incubate for 2 hours at 37° C. […] Cyclophilin is detected with anti-cyclophilin rabbit antiserum diluted in 1% BSA containing PBS and incubates overnight at 4° C. […] Bound rabbit antibodies are then detected by goat anti-rabbit IgG conjugated to alkaline phosphatase diluted in 1% BSA-PBS and allowed to incubate for 2 hours at 37° C. […] After incubation with 4-nitrophenyl phosphate (1 g/l in diethanolamine buffer, pH 9.8) for 1 to 2 hours at 37° C., the enzymatic reaction is measured spectrophotometrically at 405 nm using a spectrophotometer. […]

cyclophilin B = cyclophilin B (Homo sapiens, UniProt P23284); assay: Cyclophilin binding competitive ELISA (cyclophilin B); conditions: human recombinant cyclophilin, read-out: EC50, concentration required to achieve 50% inhibition, against cyclophilin B
Description: as §1, §2

cyclophilin A = cyclophilin A (Homo sapiens, UniProt P62937); assay: Cyclophilin binding competitive ELISA (cyclophilin A); conditions: human recombinant cyclophilin, read-out: EC50, concentration required to achieve 50% inhibition, against cyclophilin A
Description: as §1, §2

Chain of cyclophilin D (P30405 30-207): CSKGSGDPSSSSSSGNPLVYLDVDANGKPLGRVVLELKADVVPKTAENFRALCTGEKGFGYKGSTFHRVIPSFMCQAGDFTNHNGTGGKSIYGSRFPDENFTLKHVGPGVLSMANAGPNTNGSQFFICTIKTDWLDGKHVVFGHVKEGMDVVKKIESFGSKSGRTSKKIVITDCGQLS
Chain of cyclophilin A (P62937 whole entry): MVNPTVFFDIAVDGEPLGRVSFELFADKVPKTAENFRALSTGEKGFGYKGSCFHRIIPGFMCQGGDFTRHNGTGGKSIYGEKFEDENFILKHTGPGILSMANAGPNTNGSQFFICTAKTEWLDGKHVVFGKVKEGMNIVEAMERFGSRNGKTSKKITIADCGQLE
Chain of cyclophilin B (P23284 34-216): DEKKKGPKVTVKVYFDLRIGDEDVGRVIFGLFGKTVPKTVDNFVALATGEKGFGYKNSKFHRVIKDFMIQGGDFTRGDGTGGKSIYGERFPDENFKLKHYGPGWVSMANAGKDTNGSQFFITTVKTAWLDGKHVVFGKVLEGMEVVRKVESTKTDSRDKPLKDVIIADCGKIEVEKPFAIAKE

How did the pEC50 [1] turn out when `CC=CCC(C)C(O)C1C(=O)NC(CC)C(=O)N(C)C(SCCN(C)C)C(=O)N(C)C(CC(C)C)C(=O)N(Cc2ccccc2)C(C(C)C)C(=O)N(C)C(CC(C)C)C(=O)NC(C)C(=O)NC(C)C(=O)N(C)C(CC(C)C)C(=O)N(C)C(CC(C)C)C(=O)N(C)C(C(C)C)C(=O)N1C` [Compound 1, [(R)-2-(N,N-Dimethylamino)ethylthio-Sar]^3-(N-benzyl)-Val^5-cyclosporine A] was run?
The pEC50 was over 6.00.

Which results are given for `C/C=C/C[C@@H](C)[C@@H](O)[C@H]1C(=O)N[C@@H](CC)C(=O)N(C)C(SC)C(=O)N(C)[C@@H](CC(C)C)C(=O)N(Cc2ccccc2)[C@@H](C(C)C)C(=O)N(C)[C@@H](CC(C)C)C(=O)N[C@@H](C)C(=O)N[C@H](C)C(=O)N(C)[C@@H](CC(C)C)C(=O)N(C)[C@@H](CC(C)C)C(=O)N(C)[C@@H](C(C)C)C(=O)N1C` (some centres unmarked) [Compound 4, [Methylthio-Sar]^3-(N-benzyl)-Val^5-cyclosporine A]?
pEC50 [1]: > 6.00; pEC50 (cyclophilin D): < 6.22

`CC=CCC(C)C(O)C1C(=O)NC(CC)C(=O)N(C)C(SCCC)C(=O)N(C)C(CC(C)C)C(=O)N(Cc2ccccc2)C(C(C)C)C(=O)N(C)C(CC(C)C)C(=O)NC(C)C(=O)NC(C)C(=O)N(C)C(CC(C)C)C(=O)N(C)C(CC(C)C)C(=O)N(C)C(C(C)C)C(=O)N1C` (centres unmarked) [Compound 5, [n-Propylthio-Sar]^3-(N-benzyl)-Val^5-cyclosporine A] was tested. Which pEC50 [1] did it give?
Its pEC50 is under 6.00.

And the pEC50 (cyclophilin D)?
The pEC50 was under 6.22.

What about the pEC50 (cyclophilin B) of the same molecule?
Its pEC50 is under 6.22.

And the pEC50 (cyclophilin A)?
The pEC50 was under 6.22.

With `CC=CCC(C)C(O)C1C(=O)NC(CC)C(=O)N(C)C(OC)C(=O)N(C)C(CC(C)C)C(=O)N(Cc2ccccc2)C(C(C)C)C(=O)N(C)C(CC(C)C)C(=O)NC(C)C(=O)NC(C)C(=O)N(C)C(CC(C)C)C(=O)N(C)C(CC(C)C)C(=O)N(C)C(C(C)C)C(=O)N1C` (centres unmarked) [Compound 6, [Methoxy-Sar]^3-(N-benzyl)-Val^5-cyclosporine A] as the molecule, how does the pEC50 [1] read?
Its pEC50 is over 6.00.

With `CC=CCC(C)C(O)C1C(=O)NC(CC)C(=O)N(C)C(OC)C(=O)N(C)C(CC(C)C)C(=O)N(Cc2cccc(C(F)(F)F)c2)C(C(C)C)C(=O)N(C)C(CC(C)C)C(=O)NC(C)C(=O)NC(C)C(=O)N(C)C(CC(C)C)C(=O)N(C)C(CC(C)C)C(=O)N(C)C(C(C)C)C(=O)N1C` (centres unmarked) [Compound 7, [Methoxy-Sar]^3-(3-trifluoromethylbenzyl)-Val^5-cyclosporine A] as the molecule, how does the pEC50 [1] read?
The pEC50 was over 6.00.

How did the pEC50 [1] turn out when `C=CCN1C(=O)C(CC(C)C)N(C)C(=O)C(OC)N(C)C(=O)C(CC)NC(=O)C(C(O)C(C)CC=CC)N(C)C(=O)C(C(C)C)N(C)C(=O)C(CC(C)C)N(C)C(=O)C(CC(C)C)N(C)C(=O)C(C)NC(=O)C(C)NC(=O)C(CC(C)C)N(C)C(=O)C1C(C)C` (centres unmarked) [Compound 8, [Methoxy-Sar]^3-(N-allyl)-Val^5-cyclosporine A] was run?
The pEC50 was over 6.00.

With `CC=CCC(C)C(O)C1C(=O)NC(CC)C(=O)N(C)C(OC)C(=O)N(C)C(CC(C)C)C(=O)N(CC=CC)C(C(C)C)C(=O)N(C)C(CC(C)C)C(=O)NC(C)C(=O)NC(C)C(=O)N(C)C(CC(C)C)C(=O)N(C)C(CC(C)C)C(=O)N(C)C(C(C)C)C(=O)N1C` (centres unmarked) [Compound 9, [Methoxy-Sar]^3-(N-but-2-enyl)-Val^5-cyclosporine A] as the molecule, how does the pEC50 [1] read?
The pEC50 was over 6.00.

How did the pEC50 [1] turn out when `CC=CCC(C)C(O)C1C(=O)NC(CC)C(=O)N(C)C(OC)C(=O)N(C)C(CC(C)C)C(=O)N(CC=C(C)C)C(C(C)C)C(=O)N(C)C(CC(C)C)C(=O)NC(C)C(=O)NC(C)C(=O)N(C)C(CC(C)C)C(=O)N(C)C(CC(C)C)C(=O)N(C)C(C(C)C)C(=O)N1C` (centres unmarked) [Compound 10, [Methoxy-Sar]^3-(N-3-methyl-but-2-enyl)-Val^5-cyclosporine A] was run?
Its pEC50 is over 6.00.

`CC=CCC(C)C(O)C1C(=O)NC(CC)C(=O)N(C)C(OC)C(=O)N(C)C(CC(C)C)C(=O)N(CC=CCOCc2ccccc2)C(C(C)C)C(=O)N(C)C(CC(C)C)C(=O)NC(C)C(=O)NC(C)C(=O)N(C)C(CC(C)C)C(=O)N(C)C(CC(C)C)C(=O)N(C)C(C(C)C)C(=O)N1C` (stereo not drawn) [Compound 11, [Methoxy-Sar]^3-N-(trans-4-benzyloxy-but-2-enyl)-Val^5-cyclosporine A] was tested. Which pEC50 [1] did it give?
The pEC50 was over 6.00.

`CC=CCC(C)C(O)C1C(=O)NC(CC)C(=O)N(C)C(SC)C(=O)N(C)C(CC(C)C)C(=O)N(CC=CCO)C(C(C)C)C(=O)N(C)C(CC(C)C)C(=O)NC(C)C(=O)NC(C)C(=O)N(C)C(CC(C)C)C(=O)N(C)C(CC(C)C)C(=O)N(C)C(C(C)C)C(=O)N1C` (stereo not drawn) [Compound 14, [Methylthio-Sar]^3-N-[trans-4-hydroxy-but-2-enyl]-Val^5-cyclosporine A] was tested. Which pEC50 [1] did it give?
The pEC50 was over 6.00.

`CC=CCC(C)C(O)C1C(=O)NC(CC)C(=O)N(C)C(OC)C(=O)N(C)C(CC(C)C)C(=O)N(CC=CCO)C(C(C)C)C(=O)N(C)C(CC(C)C)C(=O)NC(C)C(=O)NC(C)C(=O)N(C)C(CC(C)C)C(=O)N(C)C(CC(C)C)C(=O)N(C)C(C(C)C)C(=O)N1C` (stereo not drawn) [Compound 15, [Methoxy-Sar]^3-N-[trans-4-hydroxy-but-2-enyl]-Val^5-cyclosporine A] was tested. Which pEC50 [1] did it give?
The pEC50 was over 6.00.

`CC=CCC(C)C(O)C1C(=O)NC(CC)C(=O)N(C)C(SC)C(=O)N(C)C(CC(C)C)C(=O)N(CC=CCN(C)C)C(C(C)C)C(=O)N(C)C(CC(C)C)C(=O)NC(C)C(=O)NC(C)C(=O)N(C)C(CC(C)C)C(=O)N(C)C(CC(C)C)C(=O)N(C)C(C(C)C)C(=O)N1C` (stereo not drawn) [Compound 16, [Methylthio-Sar]^3-N-[trans-4-dimethylamino-but-2-enyl]-Val^5-cyclosporine A] was tested. Which pEC50 [1] did it give?
Its pEC50 is over 6.00.

With `CC=CCC(C)C(O)C1C(=O)NC(CC)C(=O)N(C)C(OC)C(=O)N(C)C(CC(C)C)C(=O)N(CC=CCN(C)C)C(C(C)C)C(=O)N(C)C(CC(C)C)C(=O)NC(C)C(=O)NC(C)C(=O)N(C)C(CC(C)C)C(=O)N(C)C(CC(C)C)C(=O)N(C)C(C(C)C)C(=O)N1C` (stereo not drawn) [Compound 17, [Methoxy-Sar]^3-N-[trans-4-dimethylamino-but-2-enyl]-Val^5-cyclosporine A] as the molecule, how does the pEC50 [1] read?
The pEC50 was over 6.00.
